According to patent publication US8541418B2, “Inhibitors of polo-like kinase” (Elan Pharmaceutical, Inc., priority 2009, dated 2013):

What was measured:
Type in all cases: biochemical
PLK1 = PLK1 (Homo sapiens, UniProt P53350); assay: PLK TR-FRET peptide assay, PLK1; settings: GST-PLK1, 60 min reaction
PLK2 = PLK2 (Homo sapiens, UniProt Q9NYY3); assay: PLK TR-FRET peptide assay, PLK2; settings: PLK TR-FRET peptide assay, GST-PLK2, 60 min reaction; read-out: Plk2 IC50
PLK3 = PLK3 (Homo sapiens, UniProt Q9H4B4); assay: PLK TR-FRET peptide assay, PLK3; settings: GST-PLK3, 15 min reaction, read-out: Plk3 IC50
PLK3, sequence (Q9H4B4 whole entry): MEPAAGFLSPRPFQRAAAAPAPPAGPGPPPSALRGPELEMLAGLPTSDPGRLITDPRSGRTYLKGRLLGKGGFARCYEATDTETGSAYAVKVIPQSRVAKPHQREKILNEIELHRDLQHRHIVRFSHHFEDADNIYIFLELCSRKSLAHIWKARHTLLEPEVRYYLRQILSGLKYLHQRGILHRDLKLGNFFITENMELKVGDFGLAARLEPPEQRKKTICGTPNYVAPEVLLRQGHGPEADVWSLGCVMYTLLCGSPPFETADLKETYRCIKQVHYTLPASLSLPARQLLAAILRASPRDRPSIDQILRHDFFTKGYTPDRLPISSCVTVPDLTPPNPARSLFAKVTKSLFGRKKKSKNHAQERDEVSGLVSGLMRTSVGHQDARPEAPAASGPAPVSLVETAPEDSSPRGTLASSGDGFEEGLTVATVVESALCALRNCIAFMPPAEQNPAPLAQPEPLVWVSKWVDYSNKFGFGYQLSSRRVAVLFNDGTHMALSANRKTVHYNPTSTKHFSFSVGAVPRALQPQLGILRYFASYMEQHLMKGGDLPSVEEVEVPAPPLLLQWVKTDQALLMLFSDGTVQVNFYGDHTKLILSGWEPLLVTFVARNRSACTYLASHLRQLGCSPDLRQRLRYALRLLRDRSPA

PLK2, sequence (Q9NYY3 whole entry): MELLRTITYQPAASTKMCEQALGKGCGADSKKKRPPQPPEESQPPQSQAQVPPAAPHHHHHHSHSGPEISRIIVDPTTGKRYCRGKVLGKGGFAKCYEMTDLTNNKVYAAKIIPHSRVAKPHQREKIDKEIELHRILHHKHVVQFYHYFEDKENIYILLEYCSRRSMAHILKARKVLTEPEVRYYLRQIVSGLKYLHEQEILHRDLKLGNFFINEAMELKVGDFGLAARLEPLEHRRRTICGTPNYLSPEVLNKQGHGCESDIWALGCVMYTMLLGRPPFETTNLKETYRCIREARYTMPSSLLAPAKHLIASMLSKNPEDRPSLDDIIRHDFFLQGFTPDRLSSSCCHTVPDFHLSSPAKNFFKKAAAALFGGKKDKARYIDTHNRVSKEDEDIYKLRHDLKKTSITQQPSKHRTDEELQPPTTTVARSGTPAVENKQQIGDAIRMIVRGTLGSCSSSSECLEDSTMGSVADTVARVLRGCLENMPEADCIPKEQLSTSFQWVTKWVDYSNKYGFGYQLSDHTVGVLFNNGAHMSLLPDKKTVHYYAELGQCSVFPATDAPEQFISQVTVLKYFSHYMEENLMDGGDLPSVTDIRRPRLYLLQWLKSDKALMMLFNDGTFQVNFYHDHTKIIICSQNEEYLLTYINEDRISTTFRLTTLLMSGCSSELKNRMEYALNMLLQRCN
PLK1, sequence (P53350 whole entry): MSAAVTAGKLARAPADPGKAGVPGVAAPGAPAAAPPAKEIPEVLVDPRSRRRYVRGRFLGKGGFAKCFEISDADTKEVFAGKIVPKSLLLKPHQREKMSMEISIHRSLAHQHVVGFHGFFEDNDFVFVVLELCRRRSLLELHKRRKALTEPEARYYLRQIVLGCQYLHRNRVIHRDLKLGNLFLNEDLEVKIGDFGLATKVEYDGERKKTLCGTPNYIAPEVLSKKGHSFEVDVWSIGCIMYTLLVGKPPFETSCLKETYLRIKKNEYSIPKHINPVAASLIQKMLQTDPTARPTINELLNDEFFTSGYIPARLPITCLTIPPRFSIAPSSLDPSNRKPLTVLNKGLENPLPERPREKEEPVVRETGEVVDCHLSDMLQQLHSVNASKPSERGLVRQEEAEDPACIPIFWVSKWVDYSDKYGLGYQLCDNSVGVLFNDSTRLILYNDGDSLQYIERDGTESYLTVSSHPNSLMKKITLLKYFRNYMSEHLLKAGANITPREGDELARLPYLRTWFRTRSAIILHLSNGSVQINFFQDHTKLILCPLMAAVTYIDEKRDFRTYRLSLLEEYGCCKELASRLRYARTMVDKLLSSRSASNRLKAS

IC50 (PLK1) [µM]	IC50 (PLK2) [µM]	IC50 (PLK3) [µM]	Structure (SMILES)
< 1	< 1	1 to 10	[2H]C([2H])([2H])N1C(=O)C(C([2H])([2H])C([2H])([2H])[2H])N(C([2H])(C([2H])([2H])[2H])C([2H])([2H])[2H])c2nc(-c3c[nH]nc3-c3ccccc3)ncc21 (stereo not drawn) [Example 165, 7-perdeuteroethyl-8-perdeuteroisopropyl-5-trideuteromethyl-2-(3-phenyl-1H-pyrazol-4-yl)-7,8-dihydropteridin-6(5H)-one]
1 to 10	< 1	10 to 50	CC[C@@H]1C(=O)N(C)c2cnc(-n3ccnc3-c3ccc(C(F)(F)F)cc3)nc2N1C(C)C [Example 166, (R)-7-ethyl-8-isopropyl-5-methyl-2-(2-(4-(trifluoromethyl)phenyl)-1H-imidazol-1-yl)-7,8-dihydropteridin-6(5H)-one]
1 to 10	< 1	10 to 50	CC[C@@H]1C(=O)N(C)c2cnc(-c3c[nH]nc3-c3ccc(C(F)(F)F)cc3)nc2N1C(C)C [Example 167, (R)-7-ethyl-8-isopropyl-5-methyl-2-(3-(4-(trifluoromethyl)phenyl)-1H-pyrazol-4-yl)-7,8-dihydropteridin-6(5H)-one]

The next lines start with the compound.

Structure (SMILES)	IC50 (PLK1) [µM]	IC50 (PLK2) [µM]	IC50 (PLK3) [µM]
CC[C@@H]1C(=O)N(C)c2cnc(-n3ccnc3-c3ccncc3)nc2N1C(C)C [Example 150, (R)-7-ethyl-8-isopropyl-5-methyl-2-(2-(pyridin-4-yl)-1H-imidazol-1-yl)-7,8-dihydropteridin-6(5H)-one]	10 to 50	< 1	1 to 10
CC[C@@H]1C(=O)N(C)c2cnc(-n3ccnc3-c3nccs3)nc2N1C(C)C [Example 151, (R)-7-ethyl-8-isopropyl-5-methyl-2-(2-(thiazol-2-yl)-1H-imidazol-1-yl)-7,8-dihydropteridin-6(5H)-one]	1 to 10	< 1	10 to 50
CC[C@@H]1C(=O)N(C)c2cnc(-n3ccnc3-c3nccs3)nc2N1C1CCC1 [Example 156, (R)-8-cyclobutyl-7-ethyl-5-methyl-2-(2-(thiazol-2-yl)-1H-imidazol-1-yl)-7,8-dihydropteridin-6(5H)-one]	1 to 10	< 1	1 to 10
[2H]C([2H])([2H])N1C(=O)C(C([2H])([2H])C([2H])([2H])[2H])N(C([2H])(C([2H])([2H])[2H])C([2H])([2H])[2H])c2nc(-n3ccnc3-c3nccs3)ncc21 (stereo not drawn) [Example 158, 7-perdeuteroethyl-8-perdeuteroisopropyl-5-trideuteromethyl-2-(2-(thiazol-2-yl)-1H-imidazol-1-yl)-7,8-dihydropteridin-6(5H)-one]	1 to 10	< 1	10 to 50
[2H]C([2H])([2H])N1C(=O)C(C([2H])([2H])C([2H])([2H])[2H])N(C([2H])(C([2H])([2H])[2H])C([2H])([2H])[2H])c2nc(-n3ccnc3-c3cccc(OC(F)(F)F)c3)ncc21 (stereo not drawn) [Example 160, 7-perdeuteroethyl-8-perdeuteroisopropyl-5-trideuteromethyl-2-(2-(3-(trifluoromethoxy)phenyl)-1H-imidazol-1-yl)-7,8-dihydropteridin-6(5H)-one]	1 to 10	< 1	10 to 50
[2H]C([2H])([2H])N1C(=O)C(C([2H])([2H])C([2H])([2H])[2H])N(C([2H])(C([2H])([2H])[2H])C([2H])([2H])[2H])c2nc(-n3ccnc3-c3ccc(C(F)(F)F)cc3)ncc21 (stereo not drawn) [Example 161, 7-perdeuteroethyl-8-perdeuteroisopropyl-5-trideuteromethyl-2-(2-(4-(trifluoromethyl)phenyl)-1H-imidazol-1-yl)-7,8-dihydropteridin-6(5H)-one]	1 to 10	< 1	1 to 10
CC[C@@H]1C(=O)N(C)c2cnc(-c3c[nH]nc3-c3ccccc3)nc2N1C(C)C [Example 164, (R)-7-ethyl-8-isopropyl-5-methyl-2-(3-phenyl-1H-pyrazol-4-yl)-7,8-dihydropteridin-6(5H)-one]	< 1	< 1	< 1
